In patent US20210145816A1, “PHARMACEUTICAL FORMULATION OF LONAFARNIB WITH A SULFOBUTYLETHER BETA-CYCLODEXTRIN” (Cyclolab Cyclodextrin Research and Development Laboratory …, priority 2019, published 2021):
Values after ≈ are worked out from the molar mass of the structure shown.

Key:
[1] = formulation of lonafarnib into a liquid vehicle with 2-hydroxypropyl beta cyclodextrin; assay type: physicochemical; conditions: 20% 2-hydroxypropyl beta cyclodextrin, lonafarnib 12 mg/ml
Procedure: A prior publication describing formulation of lonafarnib into a liquid vehicle with a cyclodextrin is known (Hernandez et al., Science Translational Medicine, 11, eaat3005 (2019)), but based on the disclosed data, even using high concentration (20%) of 2-hydroxypropyl beta cyclodextrin (hydroxypropyl betadex), a suspension of lonafarnib was obtained for the (pre)clinically relevant concentration of the drug (12 mg/ml). […] Consequently, present invention provides a significant formulation improvement over the teachings of said journal publication.

[2] = water; cited from earlier work
[3] = 20% 2-hydroxypropyl beta cyclodextrin, lonafarnib 12 mg/ml; cited from earlier work

NC(=O)N1CCC(CC(=O)N2CCC([C@H]3c4ncc(Br)cc4CCc4cc(Cl)cc(Br)c43)CC2)CC1 [Lonafarnib]
physical state of liquid formulation obtained (experiment reproduced by Cyclolab Ltd.) [1]: rough suspension, unsuitable for parenteral application
aqueous solubility [2]: 0.8 µg/mL (≈ 1.25 µM)
physical state of liquid formulation obtained (Hernandez et al. 2019) [3]: suspension
